US20050287225A1, “Metal cluster nano-compounds for treating tumor diseases” (priority 2002, published 2005)

Legend:
[1] = system: MOR/CPR lung cancer cells, cisplatin-resistant; assay: In-vitro cytotoxicity MTT assay (Example 4); type: cell-based, human
Experimental: (§1) The in-vitro cytotoxicity was studied by means of the MTT assay (Promega), a colorimetric method in which a tetrazolium-based compound is reduced by living cells to give formazan. The amount of formazan formed is directly proportional to the number of living cells in the culture. Each cell line was incubated in microliter dishes for 48 hours before adding the medicaments. Cisplatin or Au55 was added, followed by an incubation for 72 or 24 hours. Subsequently, the MTT assays were carried out following Promega's information.
Diagram 4 relates to in-vitro cytotoxicity assays on cisplatin-resistant MOR/CPR lung tumor cells, incubated with different concentrations of Au55(Ph2PC6H4SO3H)12Cl6 [Au55] for 24 hours. Each point represents 3 experiments carried out independently of one another and repeated in each case three times.
Diagramm 5 relates to in-vitro cytotoxicity assays on cisplatin-resistant MOR/CPR lung tumor cells incubated with different concentrations of free ligand, Ph2PC6H4SO3H, for 24 hours. Each point represents 3 independent experiments repeated in each case in triplicate.
Table 2 below depicts the inhibitory concentrations of cisplatin and [Au55] incubations with various cell lines over 72 and 24 hours, respectively. The IC50 data were calculated from the graphs obtained from the in vitro cytotoxicity assays MTT. […]

[2] = In-vitro cytotoxicity MTT assay (Example 4); type: cell-based, human; conditions: Hek, 72 h; read-out: IC50 cisplatin 72 h
Experimental: as §1
(§2) Table 2 below depicts the inhibitory concentrations of cisplatin and [Au55] incubations with various cell lines over 72 and 24 hours, respectively. The IC50 data were calculated from the graphs obtained from the in vitro cytotoxicity assays MTT. Each experiment was repeated three times independently from one another by way of determination in triplicate.

[3] = system: MV3 metastatic melanoma; assay: In-vitro cytotoxicity MTT assay (Example 4); type: cell-based, human; conditions: 72 h, read-out: IC50 cisplatin 72 h
Experimental: as §1, §2

[4] = system: BLM metastatic melanoma; assay: In-vitro cytotoxicity MTT assay (Example 4); type: cell-based, human; conditions: 72 h, read-out: IC50 cisplatin 72 h
Experimental: as §1, §2

[5] = system: HeLa cervical cancer cells; assay: In-vitro cytotoxicity MTT assay (Example 4); type: cell-based, human; conditions: 72 h, read-out: IC50 cisplatin 72 h
Experimental: as §1, §2

[6] = system: U205 osteosarcoma; assay: In-vitro cytotoxicity MTT assay (Example 4); type: cell-based, human; conditions: 72 h, read-out: IC50 cisplatin 72 h
Experimental: as §1, §2

[7] = system: MOR/P lung cancer cells, cisplatin-sensitive; assay: In-vitro cytotoxicity MTT assay (Example 4); type: cell-based, human; conditions: 72 h
Experimental: as §1, §2

[8] = system: MC3 normal bone cells; assay: In-vitro cytotoxicity MTT assay (Example 4); type: cell-based; conditions: 72 h, read-out: IC50 cisplatin 72 h
Experimental: as §1, §2

[9] = system: MOR/P lung cancer cells (cisplatin-sensitive); assay: In-vitro cell toxicity, MTT colorimetry assay (Example 2); type: cell-based, human; conditions: comparison value, incubation not stated
Experimental: (§3) The in-vitro cytotoxicity properties of the gold-55 particles (Au55) prepared in example 1. C) were carried out on HeLa cancer cells and on MOR/P and MOR/CPR lung cancer cells. MOR/P cells are sensitive to cisplatin, while MOR/CPR cells are resistant to cisplatin.
(§4) The HeLa cells were grown on a DMEM medium at 37° C. in a 5% CO2 atmosphere. The medium had been supplemented with 10% strength FCS serum and antibiotics. Daughter cultures were generated twice weekly. The MOR/P and MOR/CPR cells were grown on an RPMI 1640 medium at 37° C. in a 5% CO2 atmosphere. Said medium had likewise been supplemented with 10% strength FCS serum and antibiotics. Here too, daughter cultures were generated twice weekly.
(§5) The in-vitro cytotoxicity of the Au55 particles was determined in the following manner using 96-well microtiter plates and an MTT colorimetry assay (CellTiter 96® Aqueous One Solution Cell Proliferation Assay, Promega):
(§6) Cultures of each cell line were applied at a concentration of 1—10^5 cells/ml to the microtiter plates and grown in the above-described media at 37° C. in a 5% CO2 atmosphere for 72 hours. […]
(§7) Absorption at 490 nm was measured for each well of each microtiter plate by using a 96-well microtiter plate reader. The absorption measured at 490 nm was plotted as a function of the Au55 particle concentration and the IC50 value was determined.

[10] = system: MOR/CPR lung cancer cells (cisplatin-resistant); assay: as above; type: cell-based, human; conditions: comparison value, incubation not stated
Experimental: as §3, §4, §5, §6, §7

| Structure (SMILES) | Influence of the ligand molecules themselves on the life span of the cells ([1]; different concentrations of free ligand, 24 hours) | IC50 [2] [µM] | IC50 [3] [µM] | IC50 [4] [µM] | IC50 [5] [µM] | IC50 [6] [µM] | IC50 [7] [µM] | IC50 ([1]; 72 h) [µM] | IC50 [8] [µM] | IC50 [9] [µM] | IC50 [10] [µM] |
| --- | --- | --- | --- | --- | --- | --- | --- | --- | --- | --- | --- |
| O=S(=O)(O)c1cccc(P(c2ccccc2)c2ccccc2)c1 [ligand molecules, Ph2PC6H4SO3H] | cannot be detected |  |  |  |  |  |  |  |  |  |  |
| N.N.[Cl][Pt][Cl] [cisplatin, cis-diaminodichloroplatinum(II)] |  | 20.1 ± 6 | > 50 | 54.7 ± 7.6 | 7.93 ± 0.95 | 11.2 ± 2.02 | 3.3 ± 0.3 | 7.1 ± 1.2 | 26.1 ± 1.27 | 3.3 ± 0.3 | 7.1 ± 1.2 |
